Reference: ChEMBL document CHEMBL1146703, “Mannopeptimycin esters and carbonates, potent antibiotic agents against drug-resistant bacteria” (2004)
≈ marks a conversion by molar mass, not a printed value.

Key:
Mus musculus = assay: Antibacterial activity against Staphylococcus aureus infection in mouse after i.v. administration (Vancomycin, ED50= 1.0 mg/kg ); assay type: functional; details: route intravenous
Escherichia coli = assay: Antibacterial activity against Escherichia coli at </=64 ug/mL; No activity; assay type: functional, organism-based
Staphylococcus aureus [1] = assay: Antibacterial activity against Staphylococcus aureus; assay type: functional
Enterococcus faecalis [2] = assay: Antibacterial activity against Enterococcus faecalis; Range is 16-32; assay type: functional
Enterococcus faecalis [3] = assay: Antibacterial activity against Enterococcus faecalis; assay type: functional
Staphylococcus aureus [4] = assay: Antibacterial activity against Staphylococcus aureus; Range is 4-8; assay type: functional
Staphylococcus aureus [5] = assay: Antibacterial activity against Staphylococcus aureus; Range is 1-2; assay type: functional
Enterococcus faecalis [6] = assay: Antibacterial activity against Enterococcus faecalis; Range is 4-8; assay type: functional
Enterococcus faecalis [7] = assay: Antibacterial activity against Enterococcus faecalis; Range is 64->64; assay type: functional

Structure (SMILES)	MIC (Escherichia coli)	MIC (Staphylococcus aureus [1]) [µg/mL]	MIC (Enterococcus faecalis [2]) [µg/mL]	MIC (Enterococcus faecalis [3]) [µg/mL]	MIC (Staphylococcus aureus [4]) [µg/mL]	MIC (Staphylococcus aureus [5]) [µg/mL]	MIC (Enterococcus faecalis [6]) [µg/mL]	MIC (Enterococcus faecalis [7]) [µg/mL]	ED50 (Mus musculus) [mg/kg]
CC(C)CC(=O)O[C@H]1[C@H](O)[C@H](O)[C@@H](O[C@H]2[C@H](O)[C@H](O)[C@@H](Oc3ccc(C[C@H]4NC(=O)[C@H]([C@@H](C)c5ccccc5)NC(=O)CNC(=O)[C@H](CO)NC(=O)[C@@H]([C@@H](O)[C@@H]5CNC(N)N5[C@H]5O[C@H](CO)[C@@H](O)[C@H](O)[C@@H]5O)NC(=O)[C@H]([C@@H](O)[C@@H]5CNC(N)N5)NC4=O)cc3)O[C@@H]2CO)O[C@@H]1CO (stereo not given in full)	No activity	4 (≈ 2.89 µM)	32 (≈ 23.1 µM)						0.6
CC(C)CC(=O)O[C@@H]1[C@H](O)[C@@H](O[C@H]2[C@H](O)[C@H](O)[C@@H](Oc3ccc(C[C@H]4NC(=O)[C@H]([C@@H](C)c5ccccc5)NC(=O)CNC(=O)[C@H](CO)NC(=O)[C@@H]([C@@H](O)[C@@H]5CNC(N)N5[C@H]5O[C@H](CO)[C@@H](O)[C@H](O)[C@@H]5O)NC(=O)[C@H]([C@@H](O)[C@@H]5CNC(N)N5)NC4=O)cc3)O[C@@H]2CO)O[C@H](CO)[C@H]1O (stereo not given in full)	No activity			64 (≈ 46.3 µM)	8 (≈ 5.78 µM)				2.6
CCCC(CCC)C(=O)OC[C@H]1O[C@H](O[C@H]2[C@H](O)[C@H](O)[C@@H](Oc3ccc(C[C@H]4NC(=O)[C@H]([C@@H](C)c5ccccc5)NC(=O)CNC(=O)[C@H](CO)NC(=O)[C@@H]([C@@H](O)[C@@H]5CNC(N)N5[C@H]5O[C@H](CO)[C@@H](O)[C@H](O)[C@@H]5O)NC(=O)[C@H]([C@@H](O)[C@@H]5CNC(N)N5)NC4=O)cc3)O[C@@H]2CO)[C@@H](O)[C@@H](O)[C@@H]1O (stereo not given in full)	No activity			4 (≈ 2.81 µM)		2 (≈ 1.4 µM)			0.52
C[C@@H](c1ccccc1)[C@@H]1NC(=O)CNC(=O)[C@H](COC(=O)CCC2CCCC2)NC(=O)[C@@H]([C@@H](O)[C@@H]2CNC(N)N2[C@H]2O[C@H](CO)[C@@H](O)[C@H](O)[C@@H]2O)NC(=O)[C@H]([C@@H](O)[C@@H]2CNC(N)N2)NC(=O)[C@@H](Cc2ccc(O[C@H]3O[C@H](CO)[C@@H](O[C@H]4O[C@H](CO)[C@@H](O)[C@H](O)[C@@H]4O)[C@H](O)[C@@H]3O)cc2)NC1=O (stereo not given in full)	No activity	> 64		> 64					
CC(C)CC(=O)O[C@@H]1[C@@H](O[C@H]2[C@H](O)[C@H](O)[C@@H](Oc3ccc(C[C@H]4NC(=O)[C@H]([C@@H](C)c5ccccc5)NC(=O)CNC(=O)[C@H](CO)NC(=O)[C@@H]([C@@H](O)[C@@H]5CNC(N)N5[C@H]5O[C@H](CO)[C@@H](O)[C@H](O)[C@@H]5O)NC(=O)[C@H]([C@@H](O)[C@@H]5CNC(N)N5)NC4=O)cc3)O[C@@H]2CO)O[C@H](CO)[C@@H](O)[C@@H]1O (stereo not given in full)	No activity	8 (≈ 5.78 µM)						64 (≈ 46.3 µM)	3.5

Continued, in another order:

MIC (Escherichia coli)	MIC (Staphylococcus aureus [1]) [µg/mL]	MIC (Enterococcus faecalis [2]) [µg/mL]	MIC (Enterococcus faecalis [3]) [µg/mL]	MIC (Staphylococcus aureus [4]) [µg/mL]	MIC (Staphylococcus aureus [5]) [µg/mL]	MIC (Enterococcus faecalis [6]) [µg/mL]	MIC (Enterococcus faecalis [7]) [µg/mL]	Structure (SMILES)	ED50 (Mus musculus) [mg/kg]
No activity		32 (≈ 22.9 µM)		8 (≈ 5.72 µM)				CCCCCC(=O)OC[C@H]1O[C@H](Oc2ccc(C[C@H]3NC(=O)[C@H]([C@@H](C)c4ccccc4)NC(=O)CNC(=O)[C@H](CO)NC(=O)[C@@H]([C@@H](O)[C@@H]4CNC(N)N4[C@H]4O[C@H](CO)[C@@H](O)[C@H](O)[C@@H]4O)NC(=O)[C@H]([C@@H](O)[C@@H]4CNC(N)N4)NC3=O)cc2)[C@@H](O)[C@@H](O)[C@@H]1O[C@H]1O[C@H](CO)[C@@H](O)[C@H](O)[C@@H]1O (stereo not given in full)	
No activity					2 (≈ 1.34 µM)	8 (≈ 5.36 µM)		C[C@@H](c1ccccc1)[C@@H]1NC(=O)CNC(=O)[C@H](CO)NC(=O)[C@@H]([C@@H](O)[C@@H]2CNC(N)N2[C@H]2O[C@H](CO)[C@@H](O)[C@H](O)[C@@H]2O)NC(=O)[C@H]([C@@H](O)[C@@H]2CNC(N)N2)NC(=O)[C@@H](Cc2ccc(O[C@H]3O[C@H](COC(=O)C(c4ccccc4)c4ccccc4)[C@@H](O[C@H]4O[C@H](CO)[C@@H](O)[C@H](O)[C@@H]4O)[C@H](O)[C@@H]3O)cc2)NC1=O (stereo not given in full)	
